Experimental findings from PubChem BioAssay AID563 (University of Pittsburgh Molecular Library Screening Center, 2006) are described below.

Calls of active or inactive are those of the source. How the calls were made is not given here.

In the assay the target is Dual specificity protein phosphatase 1 (Homo sapiens) (UniProt P28562). Description: reproducibility of MKP-1 inhibition curves – biochemical, reproducibility testing, probe assessment, dose response (AID 563). Particulars: recombinant MKP-1 phosphatase, fluorescence intensity.
Sequence of Dual specificity protein phosphatase 1 (Homo sapiens) (P28562 whole entry, looked up): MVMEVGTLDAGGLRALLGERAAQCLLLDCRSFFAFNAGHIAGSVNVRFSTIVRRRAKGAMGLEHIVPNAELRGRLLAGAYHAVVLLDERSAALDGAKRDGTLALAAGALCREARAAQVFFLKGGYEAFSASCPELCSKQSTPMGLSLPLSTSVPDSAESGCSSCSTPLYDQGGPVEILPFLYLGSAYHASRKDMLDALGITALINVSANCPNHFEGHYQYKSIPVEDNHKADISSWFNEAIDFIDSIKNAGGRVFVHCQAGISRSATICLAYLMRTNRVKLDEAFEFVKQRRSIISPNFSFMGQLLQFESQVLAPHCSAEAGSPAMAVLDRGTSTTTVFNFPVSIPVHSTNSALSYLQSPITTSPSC
On to `Cc1nc2c(C(=O)NCCC3=CCCCC3)c[nH]n2c(=O)c1Cl`, for which the IC50 is 49.8 µM.

With `O=C1C(C2=C(O)c3ccccc3C2=O)=Nc2ccccc21`, the IC50 is > 50 µM (inactive).

In the case of `Cc1cccc(N2CCN(C(=O)Cc3c(C(=O)O)[nH]c4ccc(Cl)cc34)CC2)c1C`, the IC50 was 46.9 µM.

`CCCCCNC(=O)c1ccc2c(=O)[nH]c3c(C(=O)NCC4CCCO4)sc(=S)n3c2c1` (stereo not drawn): the IC50 is 37 µM.

`CC(C)Sc1nc2sc3c(c2c2nnc(SCC(=O)NCc4ccco4)n12)CCCC3`: the IC50 is 22.8 µM.

With `Cc1ccc(-c2csc(NC(=O)c3ccno3)n2)cc1`, the IC50 was 49.7 µM.

For the compound `Cc1ccc(C)n1-c1cccc(C(=O)O)c1`, the IC50 was 17.1 µM.

Consider `CCOC(=O)c1ccc2c(c1)C1C=CCC1C(C(=O)O)N2` (stereo not drawn), for which the IC50 is 32.8 µM.
